{"source": "patent US20220054438A1", "about": "“KCHIP2 MODULATOR COMPOUNDS AND THEIR USE FOR THE TREATMENT OF CARDIOVASCULAR DISEASES” (CONSEJO SUPERIOR DE INVESTIGACIONES CIENTÍFICAS (CSIC), priority 2018, published 2022)", "key": {"[1]": {"target": "T1, KV4.3+KChIP2 channels (Homo sapiens, UniProt Q9NS61)", "T1 construct": "expressed in transfected cells; host or cells: CHO cells (transient transfection)", "T1 sequence (Q9NS61 1-270)": "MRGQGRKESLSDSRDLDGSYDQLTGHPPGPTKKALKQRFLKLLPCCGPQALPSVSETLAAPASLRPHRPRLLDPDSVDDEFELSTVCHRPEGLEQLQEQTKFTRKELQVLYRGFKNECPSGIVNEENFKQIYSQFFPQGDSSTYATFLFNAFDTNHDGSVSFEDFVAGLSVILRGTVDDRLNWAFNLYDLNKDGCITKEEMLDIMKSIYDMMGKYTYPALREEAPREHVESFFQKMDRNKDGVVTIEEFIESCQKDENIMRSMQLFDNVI", "T1 sequence (Q9UK17 1-655 partner)": "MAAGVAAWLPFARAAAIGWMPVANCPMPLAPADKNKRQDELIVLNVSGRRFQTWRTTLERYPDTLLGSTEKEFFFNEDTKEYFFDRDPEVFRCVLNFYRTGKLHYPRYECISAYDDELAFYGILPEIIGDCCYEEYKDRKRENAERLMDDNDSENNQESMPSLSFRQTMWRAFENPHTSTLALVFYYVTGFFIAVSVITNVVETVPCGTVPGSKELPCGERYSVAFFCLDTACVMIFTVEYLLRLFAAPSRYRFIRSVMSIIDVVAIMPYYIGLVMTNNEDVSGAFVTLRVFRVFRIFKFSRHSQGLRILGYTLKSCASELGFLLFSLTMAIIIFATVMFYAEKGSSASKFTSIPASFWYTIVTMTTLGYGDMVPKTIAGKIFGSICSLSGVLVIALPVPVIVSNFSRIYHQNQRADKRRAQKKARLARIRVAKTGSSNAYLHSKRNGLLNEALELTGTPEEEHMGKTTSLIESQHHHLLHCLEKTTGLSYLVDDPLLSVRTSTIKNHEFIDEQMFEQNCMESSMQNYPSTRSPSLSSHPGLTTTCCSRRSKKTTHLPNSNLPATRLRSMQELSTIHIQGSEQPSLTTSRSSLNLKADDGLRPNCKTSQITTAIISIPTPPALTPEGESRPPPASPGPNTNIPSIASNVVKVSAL", "assay": "Whole-cell patch-clamp of KV4.3+KChIP2 currents in transiently transfected CHO cells", "assay_type": "cell-based", "from_the_text": "(§1) Example 2. Tests of the effects of the compounds on the KV4.3/KChIP2 and KV4.3/KChIP2/DPP6 currents generated after the activation of KV4.3/KChIP2 and KV4.3/KChIP2/DPP6 channels expressed in CHO cells.\n(§2) The compounds synthesized according to this invention have been evaluated in vitro in voltage clamp tests in CHO cells transiently transfected with cDNA encoding KV4.3 alone or KV4.3 in the presence of KChIP2 (KV4.3+KChIP2) and DPP6 (KV4.3+KChIP2+DPP6) using the whole-cell configuration of the patch-clamp technique. Some of the compounds activate the current generated by the activation of KV4.3+KChIP2 channels."}, "[2]": {"target": "T2, KV4.3+KChIP2+DPP6 channels (Homo sapiens, UniProt Q9NS61)", "T2 construct": "expressed in transfected cells; host or cells: CHO cells (transient transfection)", "T2 sequence (P42658 whole entry partner, one chain of several)": "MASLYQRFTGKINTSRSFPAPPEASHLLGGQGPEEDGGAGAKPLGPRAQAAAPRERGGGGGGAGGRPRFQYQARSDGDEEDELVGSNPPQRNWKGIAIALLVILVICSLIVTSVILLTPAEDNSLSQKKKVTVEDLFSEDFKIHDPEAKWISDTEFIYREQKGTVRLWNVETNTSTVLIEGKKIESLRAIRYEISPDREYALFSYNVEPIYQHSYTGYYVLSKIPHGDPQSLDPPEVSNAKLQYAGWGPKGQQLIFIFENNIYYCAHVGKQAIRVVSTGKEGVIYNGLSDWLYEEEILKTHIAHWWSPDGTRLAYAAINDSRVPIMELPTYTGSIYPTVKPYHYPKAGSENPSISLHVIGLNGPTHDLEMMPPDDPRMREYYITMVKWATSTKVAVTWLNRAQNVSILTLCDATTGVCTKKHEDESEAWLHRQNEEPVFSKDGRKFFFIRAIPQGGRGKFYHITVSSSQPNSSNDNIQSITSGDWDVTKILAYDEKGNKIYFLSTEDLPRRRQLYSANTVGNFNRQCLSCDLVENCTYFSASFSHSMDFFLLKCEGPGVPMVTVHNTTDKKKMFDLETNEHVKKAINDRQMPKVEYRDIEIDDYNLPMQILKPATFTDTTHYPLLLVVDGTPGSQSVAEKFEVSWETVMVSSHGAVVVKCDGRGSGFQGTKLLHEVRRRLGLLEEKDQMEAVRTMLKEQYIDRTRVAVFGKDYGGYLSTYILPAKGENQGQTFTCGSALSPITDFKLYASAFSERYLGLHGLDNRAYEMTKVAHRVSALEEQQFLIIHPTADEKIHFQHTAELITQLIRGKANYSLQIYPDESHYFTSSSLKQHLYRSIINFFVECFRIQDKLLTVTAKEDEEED", "assay": "Whole-cell patch-clamp of KV4.3+KChIP2+DPP6 currents in transiently transfected CHO cells", "assay_type": "cell-based", "from_the_text": "as §1, §2"}, "[3]": {"system": "K+ current in ventricular cardiomyocytes", "assay": "Perforated patch-clamp of K+ current in mouse ventricular cardiomyocytes", "assay_type": "cell-based, C57BL/6J mice", "settings": "3 μM perfused for 3-4 minutes, +60 mV", "from_the_text": "Example 3. Effects of the Compounds on the K^+ Current Recorded in Mouse Ventricular Cardiomyocytes\nThe cardiomyocytes were obtained after enzyme dissociation with collagenase."}}, "note": "“Also recorded” adds a separate entry of the source."}
{"compound": "O=C(Cc1cccc(Oc2ccccc2)c1)Nc1cc2ccccc2cc1C(=O)O", "note": "[Compound 22bis, 3-[2-(3-phenoxyphenyl)acetylamino]-2-naphthoic acid]", "values": [{"measurement": "charge measured as the area under the current record", "setting": "[1]; 3 μM, CHO cells, depolarizing pulses at +60 mV", "result": "increases the charge; also recorded: produced an increase in the charge"}, {"measurement": "maximum peak of the current", "setting": "[1]; 3 μM, FIG. 1A, CHO cells", "result": "lowers the maximum peak"}, {"measurement": "charge-voltage relationship (Q-V)", "setting": "[1]; 3 μM, FIG. 3", "result": "increase in the charge of the KV4.3/KChIP2 and KV4.3/KChIP2/DPP6 current which turned out to be significant at potentials positive than 0 mV"}, {"measurement": "decrease in the peak versus decrease in the charge, concentration dependence", "setting": "[1]; all concentrations tested except 0.01 μM, FIG. 2, +60 mV", "result": "decrease in the peak that was significantly greater than that of the charge"}, {"measurement": "current activating effect", "setting": "[2]; 3 μM, FIG. 1B, compared with KV4.3+KChIP2", "result": "more pronounced in the presence of the DPP6 subunit"}, {"measurement": "charge-voltage relationship (Q-V)", "setting": "[2]; 3 μM, FIG. 3", "result": "increase in the charge of the KV4.3/KChIP2 and KV4.3/KChIP2/DPP6 current which turned out to be significant at potentials positive than 0 mV; also recorded: greater than in KV4.3/KChIP2 channels"}, {"measurement": "charge, concentration dependence", "setting": "[2]; FIG. 2B, +60 mV, compared with KV4.3/KChIP2", "result": "increase in the charge more pronounced"}, {"measurement": "decay (inactivation) time constant of the K+ current", "setting": "[3]", "result": "without modifying the decay time constant"}, {"measurement": "maximum peak K+ current", "setting": "[3]", "result": "significant increase in the maximum peak current"}]}
